Results taken from patent US20230413824A1, “AGROCHEMICAL COMPOSITION COMPRISING 3-SUBSTITUTED PHENYLAMIDINE COMPOUNDS AND USE THEREOF” (PI INDUSTRIES LIMITED, priority 2020, published 2023).
Read-outs that look alike come from different tables or passages of the source.

Tests used:
Assay type in all cases: in vivo
Pyricularia oryzae = assay: whole plant or invertebrate; settings: for pest or weed control at 0.05 ppm / pest or weed control at 0.1 ppm: Pyricularia oryzae, read-out: Observed Efficacy; for Observed Efficacy: single compound, preventive spray, rice
Botrytis cinerea = Botrytis cinerea test in tomato (preventive, glasshouse); settings: single compound
Alternaria solani = Alternaria solani test in tomato (preventive, glasshouse); settings: for pest or weed control at 0.05 ppm / pest or weed control at 0.1 ppm: Alternaria solani
Erysiphe cichoracearum = Erysiphe cichoracearum test in cucumber (preventive, glasshouse); settings: single compound; for pest or weed control at 0.05 ppm / pest or weed control at 0.1 ppm: Golovinomyces cichoracearum, read-out: Observed Efficacy (%)
Phakopsora pachyrhizi = Phakopsora pachyrhizi test in soybean (preventive, glasshouse); settings: single compound; for pest or weed control at 0.05 ppm / pest or weed control at 0.1 ppm: Phakopsora pachyrhizi, read-out: Observed Efficacy (%)
[1] = Botrytis cinerea, Conc. 0.05 ppm, preventive spray on tomato, % control vs untreated, read-out: Observed Efficacy (%)
[2] = Botrytis cinerea, Conc. 0.1 ppm, preventive spray on tomato, % control vs untreated, read-out: Observed Efficacy (%)
[3] = single compound, 0.05 ppm, preventive spray, read-out: Observed Efficacy (%)
[4] = single compound, 0.1 ppm, preventive spray, read-out: Observed Efficacy (%)
[5] = single compound, Conc. 0.05 ppm, preventive spray, read-out: Observed Efficacy
[6] = single compound, Conc. 0.1 ppm, preventive spray, read-out: Observed Efficacy
[7] = Table B3, single compound, Conc. 0.05 ppm, preventive
[8] = Table B3, single compound, Conc. 0.1 ppm, preventive
[9] = Table B4, single compound, Conc. 0.05 ppm, preventive
[10] = single compound, 0.05 ppm, preventive
[11] = single compound, 0.1 ppm, preventive
[12] = 0.05 ppm, preventive spray on cucumber
[13] = 0.05 ppm, preventive spray on soybean
[14] = 0.1 ppm, preventive spray on soybean
[15] = Conc. 0.05 ppm, soybean, preventive, Table D4
[16] = Conc. 0.05 ppm, soybean, preventive, Table D5
[17] = Conc. 0.1 ppm, soybean, preventive, Table D4
[18] = Conc. 0.1 ppm, soybean, preventive, Table D5
[19] = Conc. 0.05 ppm, preventive spray on tomato, % control vs untreated
[20] = Conc. 0.1 ppm, preventive spray on tomato, % control vs untreated
[21] = Table F4, Conc. 0.05 ppm, Botrytis cinerea in tomato, preventive
[22] = Table F4, Conc. 0.1 ppm, Botrytis cinerea in tomato, preventive
[23] = Table B4, single compound, Conc. 0.1 ppm, preventive
[24] = single compound, 0.05 ppm, preventive spray
[25] = single compound, 0.1 ppm, preventive spray
[26] = single compound, Conc. 0.1 ppm, preventive spray
[27] = 0.1 ppm, preventive spray on cucumber
[28] = Table F4, Conc. 0.1 ppm, Botrytis cinerea in tomato, preventive, read-out: Observed Efficacy (%)
[29] = Table F5, Conc. 0.05 ppm, Botrytis cinerea in tomato, preventive
[30] = Table F5, Conc. 0.1 ppm, Botrytis cinerea in tomato, preventive

Row | Molecule | pest or weed control at 0.05 ppm (Pyricularia oryzae) [%] | pest or weed control at 0.1 ppm (Pyricularia oryzae) [%] | pest or weed control at 0.05 ppm (Botrytis cinerea; [1]) [%] | pest or weed control at 0.05 ppm (Alternaria solani; [3]) [%] | pest or weed control at 0.1 ppm (Alternaria solani; [4]) [%] | pest or weed control at 0.05 ppm (Alternaria solani; [5]) [%] | pest or weed control at 0.1 ppm (Alternaria solani; [6]) [%] | Observed Efficacy (%) (Alternaria solani; [7]) | Observed Efficacy (%) (Alternaria solani; [8]) | Observed Efficacy (%) (Alternaria solani; [9]) | Observed Efficacy (%) (Alternaria solani; [10]) | Observed Efficacy (%) (Alternaria solani; [11]) | Observed Efficacy (%) (Phakopsora pachyrhizi; [15]) | Observed Efficacy (%) (Phakopsora pachyrhizi; [17]) | Observed Efficacy (%) (Botrytis cinerea; [19]) | Observed Efficacy (%) (Botrytis cinerea; [21]) | Observed Efficacy (%) (Botrytis cinerea; [22]) | Observed Efficacy (%) (Alternaria solani; [23]) | Observed Efficacy (%) (Erysiphe cichoracearum; [12]) | Observed Efficacy (%) (Erysiphe cichoracearum; [27]) | other results
1 | CC(C)(C)C(O)(CCc1ccc(Cl)cc1)Cn1cncn1 (centres unmarked) [Tebuconazole, tebuconazole] | 17 | 36 | 35 | 34 | 54 | 34 | 54 | 34 | 54 | 34 | 34 | 54 | 38 | 44 |  |  |  |  |  |  | pest or weed control at 0.1 ppm (Botrytis cinerea; [2]): 38%; pest or weed control at 0.05 ppm (Erysiphe cichoracearum; [12]): 29%; pest or weed control at 0.05 ppm (Phakopsora pachyrhizi; [13]): 38%; pest or weed control at 0.1 ppm (Phakopsora pachyrhizi; [14]): 44%; Observed Efficacy (%) (Phakopsora pachyrhizi; [16]): 38%; Observed Efficacy (%) (Phakopsora pachyrhizi; [18]): 44%
2 | CNC(=O)/C(=N/OC)c1ccccc1Oc1ccccc1 [Metaminostorbin] |  |  |  |  |  |  |  |  |  |  |  |  |  |  | 28 |  |  |  |  |  | Observed Efficacy (%) (Botrytis cinerea; [20]): 40%; Observed Efficacy (%) (Phakopsora pachyrhizi; [13]): 45%; Observed Efficacy (%) (Phakopsora pachyrhizi; [14]): 56%
3 | mancozeb |  |  |  |  |  |  |  | 14 | 16 | 14 | 14 | 16 | 12 | 15 | 19 | 19 | 24 | 16 | 24 | 29 | Observed Efficacy (%) (Botrytis cinerea; [20]): 24%; Observed Efficacy (%) (Alternaria solani; [24]): 14%; Observed Efficacy (%) (Alternaria solani; [25]): 16%; Observed Efficacy (Alternaria solani; [26]): 16%; Observed Efficacy (%) (Erysiphe cichoracearum; 0.05 ppm, cucumber, preventive): 24%; Observed Efficacy (%) (Erysiphe cichoracearum; 0.1 ppm, cucumber, preventive): 29%; Observed Efficacy (%) (Phakopsora pachyrhizi; [13]): 12%; Observed Efficacy (%) (Phakopsora pachyrhizi; [14]): 15%; Observed Efficacy (%) (Phakopsora pachyrhizi; [16]): 12%; Observed Efficacy (%) (Phakopsora pachyrhizi; [18]): 15%
4 | CC(O)(Cn1cncn1)c1ccc(Oc2ccc(Cl)cc2)cc1C(F)(F)F (centres unmarked) [Mefentrifluconazole, mefentrifluconazole] |  |  |  |  |  |  |  | 12 | 26 | 12 | 12 | 26 |  |  | 31 | 31 | 38 | 26 | 21 | 24 | Observed Efficacy (Pyricularia oryzae; Conc. 0.05 ppm): 21%; Observed Efficacy (Pyricularia oryzae; Conc. 0.1 ppm): 24%; Observed Efficacy (%) (Botrytis cinerea; [20]): 38%; Observed Efficacy (%) (Alternaria solani; [24]): 12%; Observed Efficacy (%) (Alternaria solani; [25]): 26%; Observed Efficacy (Alternaria solani; single compound, Conc. 0.05 ppm, preventive spray): 12%; Observed Efficacy (Alternaria solani; [26]): 26%; Observed Efficacy (%) (Erysiphe cichoracearum; 0.1 ppm, cucumber, preventive): 24%
5 | metiram |  |  |  |  |  |  |  |  |  | 26 |  |  | 17 | 37 | 40 | 40 | 57 | 30 | 47 | 55 | Observed Efficacy (Pyricularia oryzae; Conc. 0.05 ppm): 16%; Observed Efficacy (Pyricularia oryzae; Conc. 0.1 ppm): 18%; Observed Efficacy (%) (Botrytis cinerea; [20]): 57%; Observed Efficacy (%) (Alternaria solani; [24]): 26%; Observed Efficacy (%) (Alternaria solani; [25]): 30%; Observed Efficacy (%) (Erysiphe cichoracearum; 0.05 ppm, cucumber, preventive): 47%; Observed Efficacy (%) (Erysiphe cichoracearum; 0.1 ppm, cucumber, preventive): 55%; Observed Efficacy (%) (Phakopsora pachyrhizi; [13]): 17%
6 | O=C(Nc1ccccc1-c1ccc(Cl)cc1)c1cccnc1Cl [Boscalid, boscalid] | 24 | 37 | 38 | 13 | 26 | 13 | 26 | 13 | 26 |  | 13 | 26 |  | 32 |  | 38 |  |  | 24 | 32 | pest or weed control at 0.1 ppm (Botrytis cinerea; [28]): 52%; pest or weed control at 0.05 ppm (Erysiphe cichoracearum; 0.05 ppm, cucumber, preventive): 24%; pest or weed control at 0.1 ppm (Erysiphe cichoracearum; 0.1 ppm, cucumber, preventive): 32%; pest or weed control at 0.1 ppm (Phakopsora pachyrhizi; [14]): 32%
7 | CC1CC(C)(C)c2c(F)ccc(NC(=O)c3cn(C)nc3C(F)F)c21 (centres unmarked) [Fluindapyr, 3-(difluoromethyl)-N-(7-fluoro-1,1,3-trimethyl-2,3-dihydro-1H-inden-4-yl)-1-methyl-1H-pyrazole-4-carboxamide] | 11 |  | 27 | 14 | 29 |  |  | 14 | 29 | 14 | 14 | 29 | 20 | 30 |  | 27 | 41 | 29 | 29 | 38 | pest or weed control at 0.1 ppm (Botrytis cinerea; [2]): 41%; Observed Efficacy (%) (Botrytis cinerea; [29]): 27%; Observed Efficacy (%) (Botrytis cinerea; [30]): 41%; pest or weed control at 0.05 ppm (Erysiphe cichoracearum; 0.05 ppm, cucumber, preventive): 29%; pest or weed control at 0.1 ppm (Erysiphe cichoracearum; 0.1 ppm, cucumber, preventive): 38%; pest or weed control at 0.05 ppm (Phakopsora pachyrhizi; [13]): 20%; pest or weed control at 0.1 ppm (Phakopsora pachyrhizi; [14]): 30%; Observed Efficacy (%) (Phakopsora pachyrhizi; [18]): 30%
8 | N#Cc1sc2c(=O)c3ccccc3c(=O)c=2sc1C#N [Dithionon] |  |  |  |  |  |  |  | 21 | 26 |  |  |  |  |  |  | 38 | 45 |  |  |  | Observed Efficacy (%) (Botrytis cinerea; [29]): 38%; Observed Efficacy (%) (Botrytis cinerea; [30]): 45%
9 | OC(Cc1ccccc1Cl)(Cn1nc[nH]c1=S)C1(Cl)CC1 (centres unmarked) [Prothioconazole, prothioconazole] | 17 | 33 | 36 | 20 | 31 | 20 | 31 | 20 | 31 | 20 | 20 | 31 |  |  |  | 36 | 44 | 31 |  |  | pest or weed control at 0.01 ppm (Botrytis cinerea; Botrytis cinerea, Conc. 0.01 ppm, preventive spray on tomato, % control vs untreated, read-out: Observed Efficacy (%)): 44%; pest or weed control at 0.1 ppm (Botrytis cinerea; [2]): 44%
10 | COC(=O)N(OC)c1ccccc1COc1ccn(-c2ccc(Cl)cc2)n1 [Pyraclostrobin, pyraclostrobin] | 16 | 24 |  | 21 | 28 | 21 | 28 |  | 28 |  |  |  |  |  |  |  |  |  |  | 24 | pest or weed control at 0.05 ppm (Botrytis cinerea; Table F4, Conc. 0.05 ppm, Botrytis cinerea in tomato, preventive, read-out: Observed Efficacy (%)): 38%; pest or weed control at 0.1 ppm (Botrytis cinerea; [28]): 43%; pest or weed control at 0.05 ppm (Erysiphe cichoracearum; [12]): 21%; pest or weed control at 0.1 ppm (Erysiphe cichoracearum; 0.1 ppm, cucumber, preventive): 24%
